# Laboratory results reported in patent US4919937A, “Percutaneous administration of tamoxifen” (priority 1984, dated 1990).
# Tests used:
# [1] = tested on: receptor molecules in cancerous mammary tumors; assay: percutaneous application on the skin overlying cancerous mammary tumors; assay type: in vivo
# [2] = tracer doses of tritiated 4-hydroxytamoxifen applied in alcoholic solution 24 hours before excision of cancerous breasts; assay type: in vivo; conditions: human, breast tissue, topical or ocular, read-out: portion of the radioactivity metabolized to unidentified products
# [3] = tested on: protein structures corresponding to hormonal receptors; assay: as above; assay type: in vivo
# [4] = radioactive 4-hydroxytamoxifen applied on the skin of a healthy subject, urinary radioactivity in 15 days and circulating blood; assay type: in vivo
# Excerpt: A small portion of the radioactivity is metabolized to unidentified products (3%). In parallel, this same product in radioactive form was applied on the skin of a healthy subject, and a calculation was made of the radioactivity appearing in the urine in 15 days following administration of the product. […] It is only as a secondary effect that it reaches the liver, where it is inactivated.
# [5] = cutaneous absorption; assay type: in vivo; conditions: skin, topical or ocular; percutaneous; read-out: coefficient of cutaneous absorption
# Excerpt: (§1) The daily doses of product to be administered are easy to calculate in terms of the absorption coefficients of the drugs and the doses which it is desired to obtain for 4-hydroxytamoxifen and progesterone at the level of their receptor molecules.
# [6] = solubility in alcohol; assay type: physicochemical
# Excerpt: as §1
# [7] = passage through the liver; cited from earlier work
# [8] = tamoxifen per os; 4-hydroxytamoxifen orally or parenterally, other than percutaneously; cited from earlier work
# [9] = tested on: progesterone receptors; assay: tracer doses of tritiated progesterone administered percutaneously under the same conditions; assay type: in vivo
# Procedure: In another experiment, tracer doses of tritiated progesterone were administered under the same conditions as 4-hydroxytamoxifen.
# [10] = tested on: progesterone receptor; conditions: common knowledge; cited from earlier work
# [11] = cited from earlier work; for hepatic by-pass after percutaneous administration: alcoholic solution
smiles,measurement,setting,value
"CC/C(=C(\c1ccc(O)cc1)c1ccc(OCCN(C)C)cc1)c1ccccc1 [4-hydroxytamoxifen, 1-[4-(2-N-dimethylaminoethoxy)phenyl]-1-(4-hydroxyphenyl)-2-phenylbut-1-(Z)-ene]",passage through the cutaneous barrier and uptake on receptor molecules in tumors,[1]; 60% strength alcoholic solution,capable of passing through the cutaneous barrier and being taken up on the receptor molecules in these tumors
same,metabolised at 24 h,[2],3%
same,form found at the hormonal receptors,[3],appeared in its original form at the level of the protein structures corresponding to hormonal receptors
same,product in circulating blood,[4]; circulating blood,only traces of the product are detectable
same,destruction of the product from urinary elimination,"[4]; healthy subject, urine, 15 days",weak and gradual destruction of the product
same,Fa,[5],~1%
same,solubility in alcohol,[6],soluble in alcohol
same,metabolism/degradation after oral administration,[7],more rapidly degraded than tamoxifen
same,harmful side effects: stimulation of the ovaries,[8],detrimental paradoxical stimulation of the ovaries
CC(=O)[C@H]1CC[C@H]2[C@@H]3CCC4=CC(=O)CC[C@]4(C)[C@H]3CC[C@]12C [progesterone],radioactivity in the blood,[9]; blood,No radioactivity circulates in the blood
same,uptake by specific receptors and inactivation,[9]; conclusion,taken up by specific receptors and that it is inactivated for the most part in situ
same,"form found, binding to the progesterone receptors and metabolism","[9]; tritiated, percutaneous, excised cancerous breast","appeared in its original form, partly bound to the progesterone receptors and partly metabolized"
same,metabolites in the urine,[9]; urine,various metabolites of progesterone appeared in the 56 hours following the experiment
same,Fa,[5],10%
same,solubility in alcohol,[6],soluble in alcohol
same,metabolism/degradation after oral administration,[7],completely destroyed during its passage through the liver
same,action on the progesterone receptor,[10],"binds to is own receptor, which it activates"
same,topical retention,[11]; alcoholic solution or 60% strength aqueous alcoholic gel,48 h
same,hepatic by-pass after percutaneous administration,[11],hepatic by-passes thus produced were demonstrated
"CC/C(=C(\c1ccccc1)c1ccc(OCCN(C)C)cc1)c1ccccc1 [tamoxifen, 1-[4-(2-N-dimethylaminoethoxy)phenyl]-1,2diphenylbut-1-(Z)-ene]",activation to the 4-hydroxy derivative by the percutaneous route,"[1]; percutaneous, breast",cannot be activated to its 4-hydroxy derivative by the percutaneous route
same,metabolism/degradation after oral administration,[7],converted during its passage through the liver to numerous metabolites
same,harmful side effects: stimulation of the ovaries,[8],a paradoxical stimulation of the ovaries
C[C@]12CC[C@H]3[C@@H](CCC4=CC(=O)CC[C@@]43C)[C@@H]1CC[C@@H]2O [testosterone],hepatic by-pass after percutaneous administration,[11],hepatic by-passes thus produced were demonstrated
